Test results published in patent publication US6521659B2, “Compositions containing a substituted indolealkanoic acid and an angiotensin converting enzyme inhibitor” (Institute for Pharmaceutical Discovery, LLC, priority 2000, dated 2003).

Target: human aldose reductase (hALR2) (Homo sapiens, UniProt P15121)
Experiment: Inhibition of human aldose reductase (hALR2), methods similar to Butera et al.
Type: biochemical
Experimental: Representative compounds of Formula Iwere tested for their potency, selectivity and efficacy as inhibitors of human aldose reductase.
Since high potency of test compounds as inhibitors of aldose reductase is desirable, low hALR2 IC50 values are sought. On the other hand, high potency of test compounds as inhibitors of aldehyde reductase is undesirable, and high ALR1 IC50s values are sought. Accordingly, the hALR1/hALR2 ratio is used to determine the selectivity of the test compounds. The importance of this selectivity is Described in Kotani, et al., J. Med. Chem. 40: 684, 1997.

For “3-[6-Fluorbenzothiazole-2-yl]methyl-indole-N-acetic Acid [Example 24]”, the HALR1/hALR2 (ratio of hALR1 IC50 to hALR2 IC50 (selectivity)) was 4.
For `Cc1c(Cc2nc3c(F)c(F)cc(F)c3s2)c2ccccc2n1CC(=O)O` [Example 1, 2-methyl-3-(4,5,7-trifluorobenzothiazol-2-yl)methyl-indole-N-acetic Acid], the IC50 was 8 nM.
Compound `O=C(O)Cn1cc(Cc2nc3c(F)c(F)cc(F)c3s2)c2cc(Cl)ccc21` [Example 2, 5-chloro-3-(4,5,7-Trifluorobenzothiazol-2-yl)methyl-indole-N-acetic Acid] has an IC50 of 10 nM.
For `Cc1ccc2c(c1)c(Cc1nc3c(F)c(F)cc(F)c3s1)cn2CC(=O)O` [Example 4, 5-methyl-3-(4,5,7-trifluorobenzothiazol-2-yl)methyl-indole-N-acetic Acid], the IC50 was 8 nM.
Compound `Cc1cccc2c(Cc3nc4c(F)c(F)cc(F)c4s3)cn(CC(=O)O)c12` [Example 5, 7-methyl-3-(4,5,7-trifluorobenzothiazol-2-yl)methyl-indole-N-acetic Acid] has an IC50 of 6 nM.
`O=C(O)Cn1cc(Cc2nc3c(F)c(F)cc(F)c3s2)c2ccc(Cl)cc21` [Example 6, 6-chloro-3-(4,5,7-trifluorobenzothiazol-2-yl)methyl-indole-N-acetic Acid] gave an IC50 of 8 nM.
`O=C(O)Cn1cc(Cc2nc3c(F)c(F)cc(F)c3s2)c2cc(OCc3ccccc3)ccc21` [Example 7, 5-benzyloxy-3-(4,5,7-trifluorobenzothiazol-2-yl)methyl-indole-N-acetic Acid] showed an IC50 of 12 nM.
`O=C(O)Cn1cc(Cc2nc3c(F)c(F)cc(F)c3s2)c2ccc(F)cc21` [Example 8, 6-fluoro-3-(4,5,7-trifluorobenzothiazol-2-yl)methyl-indole-N-acetic Acid] showed an IC50 of 7 nM.
With `O=C(O)Cn1cc(Cc2nc3c(F)c(F)cc(F)c3s2)c2cc(F)ccc21` [Example 9, 5-fluoro-3-(4,5,7-trifluorobenzothiazol-2-yl)methyl-indole-N-acetic Acid] the IC50 was 11 nM.
With `Cc1ccc2c(Cc3nc4c(F)c(F)cc(F)c4s3)cn(CC(=O)O)c2c1` [Example 10, 6-methyl-3-(4,5,7-trifluorobenzothiazol-2-yl)methyl-indole-N-acetic Acid] the IC50 was 5 nM.
Work on `O=C(O)Cn1cc(Cc2nc3cc(C(F)(F)F)ccc3s2)c2ccccc21` [Example 11, 3-(5-trifluoromethylbenzothiazol-2-yl)methyl-indole-N-acetic Acid] yielded an IC50 of 99 nM.
In the case of `O=C(O)Cn1c(-c2ccccc2)c(Cc2nc3c(F)c(F)cc(F)c3s2)c2ccccc21` [Example 14, 2-phenyl-3-(4,5,7-trifluorobenzothiazol-2-yl)methyl-indole-N-acetic Acid], the IC50 is reported as 101 nM.
Work on `O=C(O)Cn1cc(Cc2nc3c(F)c(F)cc(F)c3s2)c2cc(-c3ccccc3)ccc21` [Example 15, 5-phenyl-3-(4,5,7-trifluorobenzothiazol-2-yl)methyl-indole-N-acetic acid] yielded an IC50 of 53 nM.
`O=C(O)Cn1cc(Cc2nc3c(F)c(F)cc(F)c3s2)c2cc(N3CCOCC3)ccc21` [Example 17, 5-morpholino-3-(4,5.7-trifluorobenzothiazol-2-yl)methyl-indole-N-acetic Acid] gave an IC50 of 8 nM.
`O=C(O)Cn1cc(Cc2nc3c(F)c(F)cc(F)c3s2)c2cc(Oc3ccccc3)ccc21` [Example 19, 5-phenoxy-3-(4,5,7-trifluorobenzothiazol-2-yl)methyl-indole-N-acetic Acid] showed an IC50 of 30 nM.
For `O=C(O)Cn1cc(Cc2nc3c(F)c(F)cc(F)c3s2)c2cccc(F)c21` [Example 20, 7-fluoro-3-(4,5,7-trifluorobenzothiazol-2-yl)methyl-indole-N-acetic Acid], the IC50 was 7 nM.
With `O=C(O)Cn1cc(Cc2nc3c(F)c(F)cc(F)c3s2)c2cccc(Br)c21` [Example 21, 7-bromo-3-(4,5,7-trifluorobenzothiazol-2-yl)methyl-indole-N-acetic Acid] the IC50 was 14 nM.
In the case of `O=C(O)Cn1cc(Cc2nc3c(F)c(F)cc(F)c3s2)c2cccc(Cl)c21` [Example 22, 7-chloro-3-(4,5,7-trifluorobenzothiazol-2-yl)methyl-indole-N-acetic Acid], the IC50 is reported as 9.1 nM.
